Experimental data: US7135457B1, “Random peptides that bind to gastro-intestinal tract (GIT) transport receptors and related methods” (Cytogen Corporation, priority 1997, dated 2006)
Peptide text beside a SMILES is read from it. * marks the point of attachment. Dansyl = CN(C)c1cccc2c(S(=O)(=O)*)cccc12

Experiments:
[1] = system: P100 membrane fractions derived from Caco-2 cells; experiment: Dansylated peptide ELISA on P100: PAX2 and HAX42 peptides relative binding; conditions: PAX2 peptides, ratio to ZElan021 (HAX42 = 1.00); for Binding value at 20 μg/ml: first 20 μg/ml column
Description: (§1) The peptides and proteins were analyzed by a dansylated peptide ELISA method in which 96 well plates were coated overnight at 4° C. with 100 μl/well coating protein (normally 100 μg/ml P100 membrane fraction) in 0.05M carbonate buffer pH9.6. Nonspecific binding was blocked using 200 μl/well, 2% Marvel/PBS for 2 hours at 37° C. prior to incubation with dansylated peptides. The plates were washed three times with PBS/0.05% Tween 20 and after each subsequent incubation step. […] A buffer blank control was included to ensure that background binding to plastic was not due to the antibodies used in the assay system. […] The plates were then incubated with an anti-mouse λ-HRP conjugated antibody (Southern Biotech 1060-05) at a 1:10,000 dilution in blocking solution, 100 μl/well for 1 hour at room temperature. Plates were developed using 75 μl/well Bionostics TMB substrate and incubated for approximately 10 minutes. The developing reaction was stopped using Bionostics Red Stop solution (25 μl/well), and the optical density of the plates was read at 650 nm.

[2] = system: P100 membrane fractions derived from Caco-2 cells; experiment: as above; conditions: ratio to ZElan021 (HAX42 = 1.00)
[3] = Drug potency, peptide loading and size of coacervated particles; assay type: physicochemical; conditions: formulation 1 particles (coacervation), blend
[4] = Description: In particular, phages selected in vitro to each receptor or binding site located in the GIT were amplified in E. coli, PEG-precipitated, resuspended in TBS and the titer of each phage sample was determined by plaquing in E. coli as described above. […] Using the in situ loop model described above, 0.5 ml of preselected phage library solution was injected into the tied-off portion of the duodenum/jejunum. Blood was collected into heparinized tubes from the portal vein at 0, 15, 30, 45 and 60 minutes. A blood sample was taken from the systemic circulation at the end of the experiment. Similarly, the portion of the duodenum/jejunum used for phage injection was taken at the end of the experiment.
Thirty microliters of the collected portal blood (neat and 10^−2, 10^−4, 10^−6 dilutions) was added to 30 μl E. coli K91Kan cells (overnight culture) and incubated at 37° C. for 10 min. Subsequently, 3 ml of top agarose was added and the samples were plated for plaques. One hundred microliters of the collected portal blood was added to 100 μl of E. coli K91Kan. Five milliliters of LB medium was then added and the samples were incubated at 37° C. overnight in a rotating microbial incubator. The E. coli was removed by centrifugation and the amplified phage supernatant samples were either titered directly or were PEG-precipitated, resuspended in TBS and titered. Following titration of the amplified phage, samples containing phage from each set of animals were combined, adjusting the titer of each sample to the same titer, and were plated for plaques on LB agar plates (22 cm^2 square plates). Either 12,000 or 24,000 phage were plated for plaques.
Thirty microliters of the collected systemic blood (neat and 10^−2, 10^−4, 10^−6 dilutions) was added to E. coli K91Kan cells, incubated at 37° C. for 10 min. Three ml of top agarose was then added and the samples were plated for plaques. One hundred microliters of the collected systemic blood was added to 100 μl of E. coli K91Kan, incubated at 37° C. for 10 min. Five milliliters of LB medium was then added and the samples were incubated at 37° C. overnight in a rotating microbial incubator. The E. coli was removed by centrifugation and the amplified phage supernatant samples were either titered directly or were PEG-precipitated, resuspended in TBS and titered. Following titration of the amplified phage, samples containing phage from each set of animals were combined, adjusting the titer of each sample to the same titer, and were plated for plaques on LB agar plates (22 cm^2 square plates). Either 12,000 or 24,000 phage were plated for plaques. The intestinal tissue portion used in each closed loop was excised. […] Alternatively, the tissue (in PBS supplemented with protease inhibitors) was homogenized in an Ultra Thorex homogenizer, washed 3 times in PBS containing protease inhibitors and resuspended in PBS containing protease inhibitors (Int-G samples). In each case, serial dilutions (neat and 10^−2, 10^−4, 10^−6 dilutions) of the tissue homogenate was titered in E. coli.
The phage amplified from the portal blood, systemic blood and intestinal tissue was plated for plaques. […] The filters were air-dried, and the DNA was cross-linked to the filter (UV crosslinking: 2 min, high setting). The filters were incubated in pre-hybridization buffer (6×SSC, 5×Denhardt's solution, 0.1% SDS, 20 μg/ml yeast tRNA) at 40° C.-45° C. for at least 60 min.
Synthetic oligonucleotides, (22-mers), complimentary to regions coding for the receptor or binding sites used to create the preselected phage library, were synthesized (see Table 14 below).
The oligonucleotides (5 pmol) were 5′ end labelled with ^32P-ATP and T4 polynucleotide kinase and approximately 2.5 pmol of labelled oligonucleotide was used in hybridization studies. […] The filters were air-dried and exposed for autoradiography for 15 hours, 24 hours or 72 hours.
Hybridization data for pools from each receptor group of rats was compiled.

[5] = system: P100 membrane fraction derived from Caco-2 cells; experiment: GST-PAX2 peptides relative binding to P100 fractions; conditions: 20 μg/ml; binding to plastic subtracted; GST-HAX42 = 1.00
Description: as §1
After subtraction of the GST-peptide binding to plastic from P100 binding values, the binding of GST-PAX2 peptides were represented as a ratio of GST-HAX42 binding to P100, which was given the arbitrary value of 1.00. The following ratios were determined from binding to P100 of GST-peptides at a peptide concentration of 20 μg/ml. Bold denotes positive binding to the P100 membrane fraction.

[6] = system: fixed Caco-2 or C2BBe1 cells; experiment: ELISA of GST fusion proteins on fixed Caco-2 or C2BBe1 cells; assay type: binding; conditions: Caco-2
Description: Fixed Caco-2, C2BBe1, and A431 cell plates were prepared by growing cells on tissue culture treated microtiter plates. When cells were confluent, plates were fixed with 10% formaldehyde, washed twice with PBS and stored with 0.5% BSA-PBS at −20° C. […] The standard ELISA procedure was followed at this point.
The standard ELISA procedure was modified as follows. GST proteins were diluted to an appropriate concentration in PBS containing 1% BSA and 0.05% Tween20 (1% BPT), titered and incubated one hour at room temperature. Following five washes an anti-GST monoclonal antibody was added (Sigma, St. Louis Clone GST-2 diluted 1:10,000 in 1% BPT) and incubated one hour. After five more washes goat anti-mouse IgG2b-HRP was added (Southern Biotechnology Associates Inc., Birmingham, Ala., diluted 1:4000 in 1% BPT) and incubated one hour. After five washes plates were developed with TMB peroxidase substrate (Kirkegard and Perry, Gaithersburg, Md.). All data is presented with background binding subtracted.

| Molecule | Binding value at 50 μg/ml (Southern Ab) [1] | Binding value at 20 μg/ml [1] | Binding value at 50 μg/ml ([1]; first 50 μg/ml column) | Binding value at 50 μg/ml ([1]; second 50 μg/ml column) | Binding value at 50 μg/ml (Jackson Ab) [2] | Value: binding to P100 as a ratio of GST-HAX42 binding [5] | further results |
| --- | --- | --- | --- | --- | --- | --- | --- |
| CC(C)C[C@H](NC(=O)[C@H](CCCNC(=N)N)NC(=O)[C@H](CCCNC(=N)N)NC(=O)[C@H](CC(N)=O)NC(=O)[C@H](Cc1c[nH]cn1)NC(=O)[C@H](CO)NC(=O)[C@H](C)NC(=O)[C@@H](N)CCCCNS(=O)(=O)c1cccc2c(N(C)C)cccc12)C(=O)N[C@@H](CCCNC(=N)N)C(=O)N[C@H](C(=O)N[C@@H](CCCNC(=N)N)C(N)=O)[C@@H](C)O [ZElan073] (H-K(Dansyl)ASHNRRLRTR-NH2) | 0.49 | 0.07 | −0.11 | 0.49 | 0.66 | – | – |
| CC(C)C[C@H](NC(=O)[C@H](CCCNC(=N)N)NC(=O)[C@H](CCCNC(=N)N)NC(=O)[C@H](CC(N)=O)NC(=O)[C@H](Cc1c[nH]cn1)NC(=O)[C@H](C)NC(=O)[C@H](CO)NC(=O)[C@@H](N)CCCCNS(=O)(=O)c1cccc2c(N(C)C)cccc12)C(=O)N[C@@H](CCCNC(=N)N)C(=O)N[C@H](C(=O)N[C@@H](CCCNC(=N)N)C(N)=O)[C@@H](C)O [ZElan074] (H-K(Dansyl)SAHNRRLRTR-NH2) | 0.48 | 0.06 | 0.82 | 0.52 | 0.71 | – | – |
| CC(C)C[C@H](NC(=O)[C@H](CCCNC(=N)N)NC(=O)[C@H](CCCNC(=N)N)NC(=O)[C@H](CC(N)=O)NC(=O)[C@H](C)NC(=O)[C@H](CO)NC(=O)[C@H](CO)NC(=O)[C@@H](N)CCCCNS(=O)(=O)c1cccc2c(N(C)C)cccc12)C(=O)N[C@@H](CCCNC(=N)N)C(=O)N[C@H](C(=O)N[C@@H](CCCNC(=N)N)C(N)=O)[C@@H](C)O [ZElan075] (H-K(Dansyl)SSANRRLRTR-NH2) | 0.32 | 0.13 | 0.52 | 0.38 | 0.47 | – | – |
| CC(C)C[C@H](NC(=O)[C@H](CCCNC(=N)N)NC(=O)[C@H](CCCNC(=N)N)NC(=O)[C@H](C)NC(=O)[C@H](Cc1c[nH]cn1)NC(=O)[C@H](CO)NC(=O)[C@H](CO)NC(=O)[C@@H](N)CCCCNS(=O)(=O)c1cccc2c(N(C)C)cccc12)C(=O)N[C@@H](CCCNC(=N)N)C(=O)N[C@H](C(=O)N[C@@H](CCCNC(=N)N)C(N)=O)[C@@H](C)O [ZElan076] (H-K(Dansyl)SSHARRLRTR-NH2) | 0.42 | 0.08 | 1.00 | 0.41 | 0.60 | – | – |
| CC(C)C[C@H](NC(=O)[C@H](CCCNC(=N)N)NC(=O)[C@H](C)NC(=O)[C@H](CC(N)=O)NC(=O)[C@H](Cc1c[nH]cn1)NC(=O)[C@H](CO)NC(=O)[C@H](CO)NC(=O)[C@@H](N)CCCCNS(=O)(=O)c1cccc2c(N(C)C)cccc12)C(=O)N[C@@H](CCCNC(=N)N)C(=O)N[C@H](C(=O)N[C@@H](CCCNC(=N)N)C(N)=O)[C@@H](C)O [ZElan077] (H-K(Dansyl)SSHNARLRTR-NH2) | 0.52 | 0.20 | 0.76 | 0.54 | 0.73 | – | – |
| CC(C)C[C@H](NC(=O)[C@H](C)NC(=O)[C@H](CCCNC(=N)N)NC(=O)[C@H](CC(N)=O)NC(=O)[C@H](Cc1c[nH]cn1)NC(=O)[C@H](CO)NC(=O)[C@H](CO)NC(=O)[C@@H](N)CCCCNS(=O)(=O)c1cccc2c(N(C)C)cccc12)C(=O)N[C@@H](CCCNC(=N)N)C(=O)N[C@H](C(=O)N[C@@H](CCCNC(=N)N)C(N)=O)[C@@H](C)O [ZElan078] (H-K(Dansyl)SSHNRALRTR-NH2) | 0.47 | 0.11 | 0.87 | 0.69 | 0.68 | – | – |
| STPPSREAYSRPYSVDSDSDTNAKHSSHNRRLRTRSRPN [PAX2] | – | – | – | – | – | – | Insulin (insulin potency) ([3]; coated with the named peptide): 60.7 mg/g; Peptide (level of peptide coated onto the particles) ([3]; measured by fluorescence): 3.51 µL/mg; presence in the systemic circulation (in words) ([4]; text summary of HPT1 and hPEPT1 pools): found in the portal and systemic circulation; presence in the intestine samples or fractions (in words) ([4]; text summary of the four pools): not found in the intestine samples |
| glutathione S-transferase [GST, reference compound] | – | – | – | – | – | 0.48 | – |
| gst-RGSTGTAGGERSGVLNLHTRDNASGSGFKPWYPSNRGHK [GST-5PAX5] | – | – | – | – | – | – | binding to fixed Caco-2 or C2BBe1 cells relative to GST control [6]: weak to moderate binding |
| gst-RRLRTRSRPN [GST-115] | – | – | – | – | – | 0.36 | – |
| gst-SPCGGGSWCRFMQGGLFGGRTDGCGAHRNRTSASLEPPSSDY [GST-SNi34] | – | – | – | – | – | – | binding to fixed Caco-2 or C2BBe1 cells relative to GST control [6]: bound |
| gst-SRPYSVDSDSDTNAKHSSHNR [GST-105] | – | – | – | – | – | −0.08 | – |
| gst-SSHNRRLRTR [GST-114] | – | – | – | – | – | 0.17 | – |
| gst-STPPSREAYSRPYSVDSDSD [GST-104] | – | – | – | – | – | 0.01 | – |
| gst-TNAKHSSHN [GST-113] | – | – | – | – | – | 0.26 | – |
